The values below come from paper PMC13266999, “Designing Antibiotics with Inherent Resistance to Efflux as a Strategy to Revive Discovery against Multidrug-Resistant Pathogens” (Journal of Medicinal Chemistry, 2026).

For assay [1], the system named is A. baumannii. As to the kind of experiment: A. baumannii efflux chequerboard assay. The assay is classed as cell-based, Acinetobacter baumannii. Conditions: for MIC: Acinetobacter baumannii. Here is the method: Checkerboard assays were performed by preparing two separate 2-fold dilution series of compounds in two 96 well plates, one horizontally, one vertically. […] Plates were incubated at 37 C for 20 h and the absorbance (OD600) was read on a CLARIOstar spectrophotometer (BMG Labtech). The fractional inhibitory concentration was calculated as follows: ΣFIC = [(MIC of A in combination)/(MIC of A alone)] + [(MIC of B in combination)/(MIC of B alone)].

Assay [2] deals with S. aureus. As to the kind of experiment: MIC (microbroth dilution). In kind it is cell-based, Staphylococcus aureus. Conditions: for MIC: Staphylococcus aureus. As for the experimental part: All bacteria were maintained on tryptic soy agar (TSA), except Streptococcus spp., which were maintained on Columbia agar plates containing 5% horse blood. […] Bacteria were grown to stationary phase in liquid culture overnight, with shaking at 200 rpm, before being back diluted to the relevant starting concentration for each assay below. MICs were measured by the microbroth dilution method. […] Absorbance at OD600 was read on a CLARIOstar spectrophotometer (BMG Labtech) and the MIC was defined as the minimum concentration of compound where no visible growth was detected. […] MICs were also performed in the presence of the outer membrane permeator, polymyxin b nonapeptide (PMBN) following the same MIC method but with the following variation. The 2-fold dilution series of compound was prepared as above, then 50 μL of PMBN at a final concentration of 30 μg/mL was added to relevant wells, while 50 μL/well of blank media was added to the remaining wells. Bacteria were then added at 50 μL/well for a starting concentration as above. […] The MICs were read and defined as above. All animal procedures were performed by the contract research organization Pharmacology Discovery Services Taiwan in accordance with the Guide for the Care and Use of Laboratory Animals. The procedures were approved by the Institutional Ethics Committee of Pharmacology Discovery Services Taiwan, Ltd. (approval no. AB127662), in compliance with animal welfare legislation in Taiwan.
Background: In broth dilution the organism is exposed to a series of concentrations in liquid medium.

Where [3] appears, read: ATCC9144, ATCC 9144, read-out: MIC.
[4] abbreviates: NCTC13277, NCTC 13277, read-out: MIC.
Setting [5] is: NCTC13616, NCTC 13616, read-out: MIC.

Converted amounts (≈) assume the structure as drawn. Read-outs that look alike come from different tables or passages of the source. Where only a bound is given, the exact number is not on record here.

For orientation: MIC means the least concentration at which growth counts as inhibited.

Take `CC(C)(O/N=C(\C(=O)N[C@@H]1C(=O)N2C(C(=O)[O-])=C(C[n+]3ccccc3)CS[C@H]12)c1csc(N)n1)C(=O)O` [Ceftazidime]: the “MIC +50 (0.25x MIC)” value in assay [1] (A. baumannii ATCC 17978) was 0.94 to 3.76 µg/mL; in assay [1] (A. baumannii AYE), >1,024 μg/mL. Also, the “MIC +50 (0.5x MIC)” value is 0.003 to 0.438 µg/mL in assay [1] (A. baumannii ATCC 17978) and 3.76 to 224 µg/mL in assay [1] (A. baumannii AYE). In addition, the MIC in assay [1] (ATCC17978, A. baumannii ATCC 17978, read-out: MIC alone) was 4 to 16 µg/mL; in assay [1] (A. baumannii AYE, read-out: MIC alone), above 1020 µg/mL.

Regarding `O=C(N[C@H](CO)[C@H](O)c1ccc([N+](=O)[O-])cc1)C(Cl)Cl` [Chloramphenicol], the “MIC +50 (0.25x MIC)” value in assay [1] (A. baumannii ATCC 17978) was determined as 60 µg/mL; in assay [1] (A. baumannii AYE), 120 µg/mL. In addition, the “MIC +50 (0.5x MIC)” value in assay [1] (A. baumannii ATCC 17978) was determined as 56 µg/mL; in assay [1] (A. baumannii AYE) it was 224 µg/mL. In addition, the MIC is 64 µg/mL in assay [1] (ATCC17978, read-out: MIC alone) and 128 µg/mL in assay [1] (read-out: MIC alone).

Regarding `O=C(O)c1cn(C2CC2)c2cc(N3CCN(Cc4cccc5c4CCCC5)CC3)c(F)cc2c1=O` [Compound 29, 1-Cyclopropyl-6-fluoro-4-oxo-7-(4-((5,6,7,8-tetrahydronaphthalen-1-yl)methyl)piperazin-1-yl)-1,4-dihydroquinoline-3-carboxylic acid], the MIC in assay [2] (setting [3]) was 0.25 to 1 µg/mL (≈ 0.526 to 2.1 µM); in assay [2] (setting [4]) it was 1 to 2 µg/mL (≈ 2.1 to 4.21 µM); in assay [2] (setting [5]) it was 1 µg/mL (≈ 2.1 µM); in assay [2] (SA-1199, read-out: MIC) it was 0.5 µg/mL (≈ 1.05 µM); in assay [2] (SA-1199B (NorA-overexpressing)), 0.5 µg/mL (≈ 1.05 µM).

As to `CCn1cc(C(=O)O)c(=O)c2cc(F)c(N3CCN(Cc4cccc5c4CCCC5)CC3)cc21` [Compound 30, 1-Ethyl-6-fluoro-4-oxo-7-(4-((5,6,7,8-tetrahydronaphthalen-1-yl)methyl)piperazin-1-yl)-1,4-dihydroquinoline-3-carboxylic acid], the MIC is 1 µg/mL (≈ 2.16 µM) in assay [2] (setting [3]); 2 µg/mL (≈ 4.31 µM) in assay [2] (setting [4]); 2 µg/mL (≈ 4.31 µM) in assay [2] (setting [5]); 0.25 µg/mL (≈ 0.539 µM) in assay [2] (SA-1199, read-out: MIC); 0.5 µg/mL (≈ 1.08 µM) in assay [2] (SA-1199B (NorA-overexpressing)).

With `CN(C)c1ccc(CN2CCN(c3cc4c(cc3F)c(=O)c(C(=O)O)cn4C3CC3)CC2)cc1` [Compound 31, 1-Cyclopropyl-7-(4-(4-(dimethylamino)benzyl)piperazin-1-yl)-6-fluoro-4-oxo-1,4-dihydroquinoline-3-carboxylic acid], the minimal inhibitory concentration (MIC) is 0.06 to 0.125 µg/mL (≈ 0.129 to 0.269 µM) in assay [2] (setting [3]); 16 to 32 µg/mL (≈ 34.4 to 68.9 µM) in assay [2] (setting [4]); 8 to 16 µg/mL (≈ 17.2 to 34.4 µM) in assay [2] (setting [5]); 0.125 µg/mL (≈ 0.269 µM) in assay [2] (SA-1199, read-out: MIC); 0.25 µg/mL (≈ 0.538 µM) in assay [2] (SA-1199B (NorA-overexpressing)).

`CCn1cc(C(=O)O)c(=O)c2cc(F)c(N3CCN(Cc4ccc(N(C)C)cc4)CC3)cc21` [Compound 32, 7-(4-(4-(Dimethylamino)benzyl)piperazin-1-yl)-1-ethyl-6-fluoro-4-oxo-1,4-dihydroquinoline-3-carboxylic acid]: the minimal inhibitory concentration (MIC) in assay [2] (setting [3]) was 0.125 to 0.25 µg/mL (≈ 0.276 to 0.552 µM); in assay [2] (setting [4]), above 32 µg/mL; in assay [2] (setting [5]), 16 to 32 µg/mL (≈ 35.4 to 70.7 µM).

As to `CCn1cc(C(=O)O)c(=O)c2cc(F)c(N3CCN(Cc4cccc5c4OCO5)CC3)cc21` [Compound 34, 7-(4-(Benzo[d][1,3]dioxol-4-ylmethyl)piperazin-1-yl)-1-ethyl-6-fluoro-4-oxo-1,4-dihydroquinoline-3-carboxylic acid], the minimum inhibitory concentration (MIC) in assay [2] (setting [3]) is 0.5 µg/mL (≈ 1.1 µM); in assay [2] (setting [4]), above 32 µg/mL; in assay [2] (setting [5]) it was above 32 µg/mL.

Take `O=C(O)c1cn(C2CC2)c2cc(N3CCN(Cc4ccc(F)c5ccccc45)CC3)c(F)cc2c1=O` [Compound 35, 1-Cyclopropyl-6-fluoro-7-(4-((4-fluoronaphthalen-1-yl)methyl)piperazin-1-yl)-4-oxo-1,4-dihydroquinoline-3-carboxylic acid]: the minimal inhibitory concentration (MIC) turned out to be 4 µg/mL (≈ 8.17 µM) in assay [2] (setting [3]), 8 µg/mL (≈ 16.3 µM) in assay [2] (setting [4]) and 4 µg/mL (≈ 8.17 µM) in assay [2] (setting [5]).

Take `CCn1cc(C(=O)O)c(=O)c2cc(F)c(N3CCN(Cc4ccc(F)c5ccccc45)CC3)cc21` [Compound 36, 1-Ethyl-6-fluoro-7-(4-((4-fluoronaphthalen-1-yl)methyl)piperazin-1-yl)-4-oxo-1,4-dihydroquinoline-3-carboxylic acid]: the minimal inhibitory concentration (MIC) in assay [2] (setting [3]), in assay [2] (setting [4]) and in assay [2] (setting [5]) was 8 µg/mL (≈ 16.8 µM) in each case.

`O=C(O)c1cn(C2CC2)c2cc(N3CCN(Cc4cccc5ccsc45)CC3)c(F)cc2c1=O` [Compound 37, 7-(4-(Benzo[b]thiophen-7-ylmethyl)piperazin-1-yl)-1-cyclopropyl-6-fluoro-4-oxo-1,4-dihydroquinoline-3-carboxylic acid]: the minimal inhibitory concentration (MIC) in assay [2] (setting [3]) was below 0.125 µg/mL; in assay [2] (setting [4]), 2 µg/mL (≈ 4.19 µM); in assay [2] (setting [5]), 2 µg/mL (≈ 4.19 µM).

Regarding `CCn1cc(C(=O)O)c(=O)c2cc(F)c(N3CCN(Cc4cccc5ccsc45)CC3)cc21` [Compound 38, 7-(4-(Benzo[b]thiophen-7-ylmethyl)piperazin-1-yl)-1-ethyl-6-fluoro-4-oxo-1,4-dihydroquinoline-3-carboxylic acid], the minimum inhibitory concentration (MIC) was found to be 0.25 µg/mL (≈ 0.537 µM) in assay [2] (setting [3]), 2 µg/mL (≈ 4.3 µM) in assay [2] (setting [4]) and 2 µg/mL (≈ 4.3 µM) in assay [2] (setting [5]).

In the case of `O=C(O)c1cn(C2CC2)c2cc(N3CCN(Cc4ccc(-c5ccccc5)cc4)CC3)c(F)cc2c1=O` [Compound 39, 7-(4-([1,1’-Biphenyl]-4-ylmethyl)piperazin-1-yl)-1-cyclopropyl-6-fluoro-4-oxo-1,4-dihydroquinoline-3-carboxylic acid], the MIC in assay [2] (setting [3]) stood at 1 µg/mL (≈ 2.01 µM); in assay [2] (setting [4]), 2 µg/mL (≈ 4.02 µM); in assay [2] (setting [5]) it was 2 µg/mL (≈ 4.02 µM).

For the molecule `CCn1cc(C(=O)O)c(=O)c2cc(F)c(N3CCN(Cc4ccc(-c5ccccc5)cc4)CC3)cc21` [Compound 40, 7-(4-([1,1’-Biphenyl]-4-ylmethyl)piperazin-1-yl)-1-ethyl-6-fluoro-4-oxo-1,4-dihydroquinoline-3-carboxylic acid], the MIC was found to be 2 µg/mL (≈ 4.12 µM) in assay [2] (setting [3]), 4 µg/mL (≈ 8.24 µM) in assay [2] (setting [4]) and 2 µg/mL (≈ 4.12 µM) in assay [2] (setting [5]).

Take `C[C@H]1COc2c(N3CC[C@H](Nc4ncccn4)C3)c(F)cc3c(=O)c(C(=O)O)cn1c23` [Compound 44, (S)-9-Fluoro-3-methyl-7-oxo-10-((S)-3-(pyrimidin-2-ylamino)pyrrolidin-1-yl)-2,3-dihydro-7H-[1,4]oxazino[2,3,4-ij]quinoline-6-carboxylic acid]: the minimum inhibitory concentration (MIC) in assay [2] (setting [3]) was found to be 0.25 µg/mL (≈ 0.588 µM); in assay [2] (setting [4]) it was 8 µg/mL (≈ 18.8 µM); in assay [2] (setting [5]), 8 µg/mL (≈ 18.8 µM); in assay [2] (SA-1199, read-out: MIC) it was 0.25 µg/mL (≈ 0.588 µM); in assay [2] (SA-1199B (NorA-overexpressing)), 0.25 µg/mL (≈ 0.588 µM). Moreover, the “fold potentiation compared to levofloxacin” value in assay [2] (fluoroquinolone-resistant NCTC 13616 and NCTC 13277) was 2–4 fold.

In the case of `C[C@H]1COc2c(N3CC[C@@H](N)C3)c(F)cc3c(=O)c(C(=O)O)cn1c23` [Compound 45, (S)-10-((R)-3-Aminopyrrolidin-1-yl)-9-fluoro-3-methyl-7-oxo-2,3-dihydro-7H-[1,4]oxazino[2,3,4-ij]quinoline-6-carboxylic acid], in assay [2], the “fold loss of activity compared to 46” value is recorded as 32- to 64 fold. The results for the MIC in assay [2] (setting [3]), in assay [2] (setting [4]) and in assay [2] (setting [5]) were 0.25 µg/mL (≈ 0.72 µM), 32 µg/mL (≈ 92.1 µM) and 32 µg/mL (≈ 92.1 µM), respectively.

For `C[C@H]1COc2c(N3CC[C@@H](Nc4ncc(F)cn4)C3)c(F)cc3c(=O)c(C(=O)O)cn1c23` [Compound 47, (S)-9-Fluoro-10-((R)-3-((5-fluoropyrimidin-2-yl)amino)pyrrolidin-1-yl)-3-methyl-7-oxo-2,3-dihydro-7H-[1,4]oxazino[2,3,4-ij]quinoline-6-carboxylic acid], the values for the minimal inhibitory concentration (MIC) in assay [2] (setting [3]), in assay [2] (setting [4]) and in assay [2] (setting [5]) were at most 0.125 µg/mL, 1 µg/mL (≈ 2.26 µM) and 0.5 µg/mL (≈ 1.13 µM), respectively.

On to `C[C@H]1COc2c(N3CC[C@@H](Nc4cnccn4)C3)c(F)cc3c(=O)c(C(=O)O)cn1c23` [Compound 48, (S)-9-Fluoro-3-methyl-7-oxo-10-((R)-3-(pyrazin-2-ylamino)pyrrolidin-1-yl)-2,3-dihydro-7H-[1,4]oxazino[2,3,4-ij]quinoline-6-carboxylic acid], for which the MIC in assay [2] (setting [3]) is at most 0.125 µg/mL; in assay [2] (setting [4]), 1 µg/mL (≈ 2.35 µM); in assay [2] (setting [5]), 1 µg/mL (≈ 2.35 µM); in assay [2] (SA-1199, read-out: MIC), 0.03 µg/mL (≈ 0.0705 µM); in assay [2] (SA-1199B (NorA-overexpressing)), 0.125 µg/mL (≈ 0.294 µM).

On to `Cc1cc(N[C@@H]2CCN(c3c(F)cc4c(=O)c(C(=O)O)cn5c4c3OC[C@@H]5C)C2)ncn1` [Compound 49, (S)-9-Fluoro-3-methyl-10-((R)-3-((6-methylpyrimidin-4-yl)amino)pyrrolidin-1-yl)-7-oxo-2,3-dihydro-7H-[1,4]oxazino[2,3,4-ij]quinoline-6-carboxylic acid], for which the MIC in assay [2] (setting [3]) amounted to 0.016 µg/mL (≈ 0.0364 µM); in assay [2] (setting [4]) it was 0.5 µg/mL (≈ 1.14 µM); in assay [2] (setting [5]), 0.25 µg/mL (≈ 0.569 µM); in assay [2] (SA-1199, read-out: MIC), 0.016 µg/mL (≈ 0.0364 µM); in assay [2] (SA-1199B (NorA-overexpressing)), 0.016 µg/mL (≈ 0.0364 µM).

In the case of `c1ccc2c(CN3CCNCC3)cccc2c1` [NMP, 1-(naphthalen-1-ylmethyl)piperazine, reference compound], the “fold improvement over ciprofloxacin alone” value in assay [2] (fluoroquinolone-resistant S. aureus strains) is recorded as 2 fold.
